What was measured:
[1] = target: chimeric glucocorticoid VP16/Heliothis ecdysone receptor (UniProt O18473+P04150, DEL153-392/E478D/INS403[…]/INS405[…]/M398P/P396A/P400T/P406S/R399P/S397A/Y393A); assay: GUS levels in transgenic tobacco progeny containing pES3 and pES4; assay type: in vivo, Heliothis virescens; design: expressed in transfected cells; stably transformed tobacco plants, pES3/pES4 (A11)
Source text: The methodology described below was used to produce four different stable Tobacco vectors. The method involves three steps: • 1. pbluescript SK HindIII/EcoRI vector was ligated to either GRE6-4635SCaMVGUSNOS HindIII/EcoRI (from p221.10GRE6) or GRE6-6035SCaMVGUSNOS HindIII/EcoRI (from p221.9GRE6) resulting in plasmid pSK-46 and pSK-60. • 2. This step involves the addition of the chimeric receptor (35SGRHEcRNOS or 35SGRVP16HEcRNOS) to pSK-60 or pSK-46. Thus a pSK-60 (or pSK-46) XbaI vector was ligated with either the 3.4 kb 35SGRHEcRNOS XbaI or the 3.0 kb 35SGRVP16HEcRNOS XbaI DNA fragment to produce pSKES1 (pSKGRE6-6035SCaMVGUSNOS-35SGRHEcRNOS), pSKES2 (pSKGRE6-4635 SCaMVGUSNOS-35 SGRHEcRNOS), pSKES3 (pSKGRE6-6035SCaMVGUSNOS-35SGRVP16HEcRNOS) and pSKES4 (pSKGRE6-4635SCaMVGUSNOS-35SGRVP16HEcRNOS). • 3. Transfer from pBluescript based vectors to binary vectors. […] The DNA of the recombinant was characterised by restriction mapping and the sequence of the junctions determined. […]

[2] = target: T1, chimeric ecdysone receptor and reporter gene cassette (pES1) (UniProt O18473+P04150); assay: GUS activity in stably transformed tobacco plants (pES1); assay type: in vivo, Heliothis virescens
T1 construct: expressed in transfected cells; host or cells: stably transformed tobacco plants (A9)
T1 sequence (P04150+O18473 with tags, fused parts or gaps): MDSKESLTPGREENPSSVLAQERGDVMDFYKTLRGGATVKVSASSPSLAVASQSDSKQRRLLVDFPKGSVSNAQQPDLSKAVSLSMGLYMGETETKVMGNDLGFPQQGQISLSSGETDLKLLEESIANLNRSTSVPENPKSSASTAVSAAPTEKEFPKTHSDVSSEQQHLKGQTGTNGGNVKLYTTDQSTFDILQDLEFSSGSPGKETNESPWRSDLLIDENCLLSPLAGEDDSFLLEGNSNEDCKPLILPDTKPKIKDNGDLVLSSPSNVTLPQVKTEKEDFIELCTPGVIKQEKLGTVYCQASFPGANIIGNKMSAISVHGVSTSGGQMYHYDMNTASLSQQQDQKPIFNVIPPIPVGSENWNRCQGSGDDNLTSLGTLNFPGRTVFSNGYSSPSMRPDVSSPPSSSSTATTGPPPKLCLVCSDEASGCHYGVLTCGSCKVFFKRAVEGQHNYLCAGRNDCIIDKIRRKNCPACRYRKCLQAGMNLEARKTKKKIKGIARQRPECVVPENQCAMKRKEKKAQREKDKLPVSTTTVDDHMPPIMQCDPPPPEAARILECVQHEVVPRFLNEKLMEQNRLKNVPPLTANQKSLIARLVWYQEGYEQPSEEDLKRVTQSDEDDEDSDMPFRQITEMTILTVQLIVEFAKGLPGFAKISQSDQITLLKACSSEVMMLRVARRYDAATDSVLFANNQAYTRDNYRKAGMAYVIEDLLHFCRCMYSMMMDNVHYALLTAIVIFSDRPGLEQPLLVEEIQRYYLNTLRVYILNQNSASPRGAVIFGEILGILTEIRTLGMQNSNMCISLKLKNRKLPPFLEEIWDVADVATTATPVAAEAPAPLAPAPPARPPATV
Source text: The methodology described below was used to produce four different stable Tobacco vectors. The method involves three steps: • 1. pbluescript SK HindIII/EcoRI vector was ligated to either GRE6-4635SCaMVGUSNOS HindIII/EcoRI (from p221.10GRE6) or GRE6-6035SCaMVGUSNOS HindIII/EcoRI (from p221.9GRE6) resulting in plasmid pSK-46 and pSK-60. • 2. This step involves the addition of the chimeric receptor (35SGRHEcRNOS or 35SGRVP16HEcRNOS) to pSK-60 or pSK-46. Thus a pSK-60 (or pSK-46) XbaI vector was ligated with either the 3.4 kb 35SGRHEcRNOS XbaI or the 3.0 kb 35SGRVP16HEcRNOS XbaI DNA fragment to produce pSKES1 (pSKGRE6-6035SCaMVGUSNOS-35SGRHEcRNOS), pSKES2 (pSKGRE6-4635 SCaMVGUSNOS-35 SGRHEcRNOS), pSKES3 (pSKGRE6-6035SCaMVGUSNOS-35SGRVP16HEcRNOS) and pSKES4 (pSKGRE6-4635SCaMVGUSNOS-35SGRVP16HEcRNOS). • 3. Transfer from pBluescript based vectors to binary vectors. The transfer of the ES1 (FIG. 29) ES2 (FIG. 30), ES3 (FIG. 31) or ES4 (FIG. 32) DNA fragments into the binary vector JR1 involves five steps: • (i) Restriction enzyme digestion of pSKES1 (ES2, ES3, and ES4) with ApaI and NotI to liberate the insert from the vector pBluescript. • (ii) The two DNA fragments were BamHI methylated for 2 hours at 37° C. in TRIS-HCl, MgCl, 80 μM SAM (S-adenosylmethionine) and 20 U of BamHI methylase. • (iii) Ligate an ApaI/NotI linker onto the fragment. The linker was designed to have an internal BamHI site: • ApaBNot1 5′ cattggatccttagc 3′ (SEQ ID NO: 46) and • ApaBNot2 5′ […] 3′ (SEQ ID NO: 47). • (iv) Restriction enzyme digest the protected and linkered fragment with BamHI and fractionate the products on a 1% (w/v) agarose gel. The protected DNA fragment (5.5 kb) was cut out of the gel and purified. • (v) A ligation of JRI BamHI vector with the protected band was carried out to produce JRIESI (JRIES2, JRIES3 or JRIES4). The DNA of the recombinant was characterised by restriction mapping and the sequence of the junctions determined. […]

Sequence of chimeric glucocorticoid VP16/Heliothis ecdysone receptor (P04150+O18473 fused with the stated changes): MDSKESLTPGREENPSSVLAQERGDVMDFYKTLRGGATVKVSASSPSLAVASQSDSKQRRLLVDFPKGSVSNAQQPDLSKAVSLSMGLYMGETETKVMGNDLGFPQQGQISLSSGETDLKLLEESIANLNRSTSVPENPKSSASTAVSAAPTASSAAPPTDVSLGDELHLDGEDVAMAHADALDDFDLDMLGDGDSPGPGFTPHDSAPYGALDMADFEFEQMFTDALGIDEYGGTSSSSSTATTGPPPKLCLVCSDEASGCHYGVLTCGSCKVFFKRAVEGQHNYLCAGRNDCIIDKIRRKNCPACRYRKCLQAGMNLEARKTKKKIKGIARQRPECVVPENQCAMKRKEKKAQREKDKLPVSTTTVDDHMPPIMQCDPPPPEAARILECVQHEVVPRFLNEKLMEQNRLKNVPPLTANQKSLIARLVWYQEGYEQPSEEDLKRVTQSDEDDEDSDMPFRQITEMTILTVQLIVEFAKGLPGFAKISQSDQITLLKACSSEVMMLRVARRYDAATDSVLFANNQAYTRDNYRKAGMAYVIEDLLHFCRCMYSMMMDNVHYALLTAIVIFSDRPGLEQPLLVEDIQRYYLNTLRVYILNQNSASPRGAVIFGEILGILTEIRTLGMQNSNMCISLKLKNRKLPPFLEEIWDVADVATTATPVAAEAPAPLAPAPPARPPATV

## CCc1ccc(C(=O)NN(C(=O)c2cc(C)cc(C)c2)C(C)(C)C)cc1 [RH5992, 3,5-dimethylbenzoic acid 1-1(1,1-dimethylethyl)-2(4-ethylbenzoyl)hydrazide]
[1]
  GUS levels relative to transgenic plants containing non-VP16 vectors pES1 and pES2: elevated GUS levels
[2]; 5 mM foliar application, 8 week old glasshouse grown tobacco plants
  GUS activity: significantly elevated
[2]; seedlings grown hydroponically in the presence of inducer
  GUS activity: significantly elevated
[2]; transgenic tobacco treated in cell culture, 100 μM in MS media
  GUS activity: significantly elevated
